Test results: patent publication US20210290648A1, “Potentiation of B-Lactam Antibiotics and B-Lactam/B-Lactamase Inhibitor Combinations Against Multidrug and Extensively Drug-Resistant Pseudomonas Aeruginosa Using Non-Ribosomal Tobramycin-Cyclam Conjugates” (University of Manitoba, priority 2018, published 2021)
Read-outs that look alike come from different tables or passages of the source.

Tests used:
WT P. aeruginosa PAO1 = test: Checkerboard combination study / MIC; type: cell-based, Pseudomonas aeruginosa; details: for MIC: Pseudomonas aeruginosa; for FICI in the presence of ≤10 μM of 1: antibiotic + compound 1; for FICI in the presence of ≤10 μM of 1 / MIC of Antibiotics in the presence of ≤10 μM of 1 / FICI in the presence of ≤10 μM of 2 / MIC of Antibiotics in the presence of ≤10 μM of 2 / FICI in the presence of ≤10 μM of 3 / MIC of Antibiotics in the presence of ≤10 μM of 3 / FICI with compounds 1-3: WT PAO1; for MIC of Antibiotics in the presence of ≤10 μM of 1: antibiotic + compound 1 ≤10 μM; for FICI in the presence of ≤10 μM of 2: antibiotic + compound 2; for MIC of Antibiotics in the presence of ≤10 μM of 2: antibiotic + compound 2 ≤10 μM; for FICI in the presence of ≤10 μM of 3: antibiotic + compound 3; for MIC of Antibiotics in the presence of ≤10 μM of 3: antibiotic + compound 3 ≤10 μM; for FICI with compounds 1-3: antibiotic + compounds 1-3 at ≤10 μM (≤16 μg/mL)
[1] = test system: β-lactamase-harboring MDR P. aeruginosa clinical isolates; test: Triple combination susceptibility (β-lactam + avibactam + compound 2); type: cell-based, Pseudomonas aeruginosa
Source text: The diazabicyclooctane β-lactamase inhibitor, avibactam, is able to inhibit a wide range of serine β-lactamases (class A, C, and D) but not metallo-β-lactamases (class B) (50, 51).^50,51 However, the high concentration of avibactam required to neutralize the effects of β-lactamase enzymes in these phenotypes is indicative of concomitant permeability barriers in the isolates, such as reduced porin uptake. […] The results of this study are shown in (FIG. 6). All isolates were resistant to all three β-lactam antibiotics used for the study. […] As expected, the study with meropenem was slightly different from others.
Antimicrobial Susceptibility Assay. The in vitro antimicrobial activity of all compounds/antibiotics against a panel of bacteria was evaluated by microbroth dilution method in accordance with the Clinical and Laboratory Standards Institute (CLSI) guidelines. Overnight grown bacterial cultures were diluted in saline to achieve a 0.5 McFarland turbidity, followed by 1:50 dilution in Mueller-Hinton broth (MHB) for inoculation to a final concentration of approximately 5×10^5CFU/mL. The antimicrobial agents were 2-fold serially diluted in MHB in a 96-well plate and incubated at 37° C. with equal volumes of inoculum for 18 h. The lowest concentration that prevented the visible growth of bacteria was defined as the MIC for each antimicrobial agent. The broth with or without bacterial cells was used as positive or negative control, respectively.
Checkerboard Assay. Combination studies with different antibiotics were performed in 96-well plates as previously described (22). Briefly, the antibiotic of interest was serially diluted in MHB along the abscissa while the adjuvant (newly synthesized conjugates) was serially diluted in MHB along the ordinate. This creates a 10×7 matrix wherein each well consists of a combination of different antibiotic and adjuvant concentrations. Overnight grown bacterial cultures were diluted in saline to achieve a 0.5 McFarland turbidity, followed by 1:50 dilution in Mueller-Hinton broth (MHB) for inoculation to a final concentration of approximately 5×10^5CFU/mL. Equal volume of this bacterial culture was then added to each well and incubated at 37° C. for 18 h. After incubation, the plates were read on EMax® Plus microplate reader (Molecular Devices, Sunnyvale, Calif., USA) at 590 nm. MIC was recorded as wells with the lowest concentration of drugs with no bacterial growth. The fractional inhibitory concentration (FIC) for each antibiotic was calculated by dividing the MIC of the antibiotic in the presence of adjuvant by the MIC of the antibiotic alone. Similarly, the FIC of adjuvant was calculated by dividing the MIC of the adjuvant in the presence of antibiotic by the MIC of the adjuvant alone. FIC index is the sum of both FICs. FIC indices of <0.5 were deemed synergistic; 0.5-4, no interaction; and >4, antagonistic.

[2] = PAO1, 18 h, antibiotic alone, WT PAO1 (Table 2), read-out: MIC alone

Row | MIC (WT P. aeruginosa PAO1; [2]) [mg/L] | MIC of Antibiotics in the presence of ≤10 μM of 1 (WT P. aeruginosa PAO1) [mg/L] | MIC of Antibiotics in the presence of ≤10 μM of 2 (WT P. aeruginosa PAO1) [mg/L] | MIC of Antibiotics in the presence of ≤10 μM of 3 (WT P. aeruginosa PAO1) [mg/L] | isolates reaching aztreonam susceptibility breakpoint (≤8 μg/ml) ([1]; aztreonam + single adjuvant 8 μM) | isolates reaching ceftazidime susceptibility breakpoint (≤8 μg/ml) ([1]; ceftazidime + single adjuvant 8 μM) | isolates reaching meropenem susceptibility level ([1]; meropenem + single adjuvant 8 μM) | Compound | FICI in the presence of ≤10 μM of 1 (WT P. aeruginosa PAO1) | FICI in the presence of ≤10 μM of 2 (WT P. aeruginosa PAO1) | FICI in the presence of ≤10 μM of 3 (WT P. aeruginosa PAO1) | MIC (WT P. aeruginosa PAO1; PAO1, read-out: MIC alone) [mg/L] | concentration that completely reverses resistance to ceftazidime and aztreonam ([1]; 16-64 μM, not meropenem) [µg/mL] | potentiation of ceftazidime ([1]; single adjuvant at 8 μM, five isolates) | FICI with compounds 1-3 (WT P. aeruginosa PAO1) | MIC (WT P. aeruginosa PAO1; PAO1, 18 h, read-out: MIC alone) [mg/L]
1 | 512 | 512 | 512 | 128 | – | – | – | C=C[C@]1(C)C[C@@H](OC(=O)CO)[C@]2(C)[C@H](C)CC[C@]3(CCC(=O)[C@H]32)[C@@H](C)[C@@H]1O [Pleuromutilin] | 1.00 | 1.00 | 0.25 | – | – | – | – | –
2 | – | – | – | – | three out of five | four out of five | one of five | NC(=O)[C@@H]1CC[C@@H]2CN1C(=O)N2OS(=O)(=O)O [Avibactam] | – | – | – | – | 4 to 16 | 4-16 fold | – | –
3 | 8 | 4 | 1 | 0.5 | – | – | – | C[C@H]1c2cccc(O)c2C(=O)C2=C(O)[C@]3(O)C(=O)C(C(N)=O)=C(O)[C@@H](N(C)C)[C@@H]3[C@@H](O)[C@@H]21 [Doxycycline] | 0.50 | 0.13 | 0.08 | – | – | – | – | –
4 | 8 | 2 | 2 | 1 | – | – | – | CN(C)c1ccc(O)c2c1C[C@H]1C[C@H]3[C@H](N(C)C)C(O)=C(C(N)=O)C(=O)[C@@]3(O)C(O)=C1C2=O [Minocycline] | 0.25 | 0.25 | 0.17 | – | – | – | – | –
5 | 1 | 1 | 0.5 | 1 | – | – | – | COc1c(N2C[C@@H]3CCCN[C@@H]3C2)c(F)cc2c(=O)c(C(=O)O)cn(C3CC3)c12 [Moxifloxacin] | 1.00 | 0.51 | 1.01 | – | – | – | – | –
6 | 16 | 8 | 8 | 16 | – | – | – | C[C@@H]1O[C@@H]1P(=O)(O)O [Fosfomycin] | 0.51 | 0.50 | 1.02 | – | – | – | – | –
7 | 16 | 2 | 2 | 4 | – | – | – | CO[C@H]1/C=C/O[C@@]2(C)Oc3c(C)c(O)c4c(O)c(c(/C=N/N5CCN(C)CC5)c(O)c4c3C2=O)NC(=O)/C(C)=C\C=C\[C@H](C)[C@H](O)[C@@H](C)[C@@H](O)[C@@H](C)[C@H](OC(C)=O)[C@@H]1C [Rifampicin] | 0.13 | 0.13 | 0.25 | – | – | – | 0.13-0.25 | –
8 | 1020 | 1024 | 256 | 256 | – | – | – | CC(=O)NC[C@H]1CN(c2ccc(N3CCOCC3)c(F)c2)C(=O)O1 [Linezolid] | 1.00 | 0.26 | 0.25 | – | – | – | – | –
9 | 1020 | 1024 | 1024 | 1024 | – | – | – | O=C1CN(/N=C/c2ccc([N+](=O)[O-])o2)C(=O)N1 [Nitrofurantoin] | 1.00 | 1.00 | 1.02 | – | – | – | 1 | –
10 | 64 | 32 | 32 | 32 | – | – | – | COc1cc(Cc2cnc(N)nc2N)cc(OC)c1OC [Trimethoprim] | 0.50 | 0.50 | 0.50 | – | – | – | – | –
11 | 512 | 64 | 64 | 32 | – | – | – | CO[C@@H]1[C@@H](OC(N)=O)[C@@H](O)[C@H](Oc2ccc3c(O)c(NC(=O)c4ccc(O)c(CC=C(C)C)c4)c(=O)oc3c2C)OC1(C)C [Novobiocin] | 0.13 | 0.13 | 0.08 | – | – | – | 0.08-0.13 | –
12 | 1020 | 512 | 512 | 64 | – | – | – | CCC[C@@H]1C[C@@H](C(=O)N[C@@H]([C@H]2O[C@H](SC)[C@H](O)[C@@H](O)[C@H]2O)[C@H](C)Cl)N(C)C1 [Clindamycin] | 0.50 | 0.51 | 0.07 | – | – | – | – | –
13 | 32 | 8 | 4 | 8 | – | – | – | O=C(N[C@H](CO)[C@H](O)c1ccc([N+](=O)[O-])cc1)C(Cl)Cl [Chloramphenicol] | 0.25 | 0.13 | 0.25 | – | – | – | – | –
14 | 512 | – | – | – | – | – | – | CC[C@H]1OC(=O)[C@H](C)[C@@H](O[C@H]2C[C@@](C)(OC)[C@@H](O)[C@H](C)O2)[C@H](C)[C@@H](O[C@@H]2O[C@H](C)C[C@H](N(C)C)[C@H]2O)[C@](C)(O)C[C@@H](C)C(=O)[C@H](C)[C@@H](O)[C@]1(C)O [Erythromycin] | 0.50 | 0.50 | 0.25 | – | – | – | – | –

Row | Compound | MIC (WT P. aeruginosa PAO1; [2]) [mg/L] | MIC of Antibiotics in the presence of ≤10 μM of 1 (WT P. aeruginosa PAO1) [mg/L] | MIC of Antibiotics in the presence of ≤10 μM of 2 (WT P. aeruginosa PAO1) [mg/L] | MIC of Antibiotics in the presence of ≤10 μM of 3 (WT P. aeruginosa PAO1) [mg/L] | isolates reaching aztreonam susceptibility breakpoint (≤8 μg/ml) ([1]; aztreonam + single adjuvant 8 μM) | isolates reaching ceftazidime susceptibility breakpoint (≤8 μg/ml) ([1]; ceftazidime + single adjuvant 8 μM) | isolates reaching meropenem susceptibility level ([1]; meropenem + single adjuvant 8 μM) | FICI in the presence of ≤10 μM of 1 (WT P. aeruginosa PAO1) | FICI in the presence of ≤10 μM of 2 (WT P. aeruginosa PAO1) | FICI in the presence of ≤10 μM of 3 (WT P. aeruginosa PAO1) | MIC (WT P. aeruginosa PAO1; PAO1, read-out: MIC alone) [mg/L] | concentration that completely reverses resistance to ceftazidime and aztreonam ([1]; 16-64 μM, not meropenem) [µg/mL] | potentiation of ceftazidime ([1]; single adjuvant at 8 μM, five isolates) | FICI with compounds 1-3 (WT P. aeruginosa PAO1) | MIC (WT P. aeruginosa PAO1; PAO1, 18 h, read-out: MIC alone) [mg/L]
15 | CN(C)c1cc(NC(=O)CNC(C)(C)C)c(O)c2c1C[C@H]1C[C@H]3[C@H](N(C)C)C(O)=C(C(N)=O)C(=O)[C@@]3(O)C(O)=C1C2=O [Tigecycline] | – | 2 | 2 | 2 | – | – | – | 0.25 | 0.50 | 0.52 | 4 | – | – | – | –
16 | CN[C@H](CC(C)C)C(=O)N[C@H]1C(=O)N[C@@H](CC(N)=O)C(=O)N[C@H]2C(=O)N[C@H]3C(=O)N[C@H](C(=O)N[C@H](C(=O)O)c4cc(O)cc(O)c4-c4cc3ccc4O)[C@H](O)c3ccc(c(Cl)c3)Oc3cc2cc(c3O[C@@H]2O[C@H](CO)[C@@H](O)[C@H](O)[C@H]2O[C@H]2C[C@](C)(N)[C@H](O)[C@H](C)O2)Oc2ccc(cc2Cl)[C@H]1O [Vancomycin] | – | 128 | 64 | 128 | – | – | – | 0.50 | 0.26 | 0.50 | – | – | – | – | 256
